Tests used:
[1] = system: p53 tumor suppressor protein; test: Western blot of p53 and p21Cip1 induction in SH-SY5Y cells; format: cell-based, human
Description: (§1) Cell culture, cell extract preparation, SDS-PAGE, and western blot: SH-SY5Y pediatric neuroblastoma cells were purchased from ATCC. Pediatric glioblastoma multiforme cell line CHLA-200 was a generous gift from Dr. C. Patrick Reynolds (Texas Tech). Cancer cells were cultured in RPMI-1640 supplemented with 10% fetal bovine serum (FBS) and 1% Penicillin-Streptomycin. Cells were lysed with RIPA lysis buffer (Millipore) containing protease inhibitor cocktails (Roche). The protein concentration was measured by the Lowry method. Equal amounts of protein were subjected to SDS-PAGE and then transferred to a PVDF membrane. The proteins of interest were then probed with their respective antibodies.
(§2) SH-SY5Y cells were treated with 4Ei-10. SH-SY5Y is a neuroblastorna cell line that contains wild-type p53. 4Ei-10 is a small molecule translation inhibitor. It is a prodrug that is converted to N7-chlorophenoxyethyl guanosine monophosphate by the enzyme hHINT1 in the cell as shown in FIG. 1A. N7-chlorophenoxyethyl guanosine monophosphate competes with the cap structure for binding to eIf-4E, preventing the recruitment of the 5′ mRNA cap structure to the eIF-4F complex. […] A time-course study was then performed by treating SH-SY5Y cells with 4Ei-10 at a concentration of 100 μM.
To determine if the increase of the p53 tumor suppressor protein caused by 4Ei-10 is associated with enhanced p53 tumor suppressor protein synthesis, SH-SY5Y cells were treated with 4Ei-10 or 4Ei-10 plus cycloheximide, a protein synthesis (elongation) inhibitor.

[2] = system: SH-SY5Y cells; test: Western blot of PARP cleavage (apoptosis) in SH-SY5Y cells; format: cell-based
Description: as §1
Since the p53 tumor suppressor protein is also a stimulator of cell apoptosis, the levels of PARP, a substrate of caspase 3, were examined in SH-SY5Y cells treated with 4Ei-10.

[3] = system: MCF-7 cells; test: Western blot of p53 and PARP cleavage in MCF-7 cells; format: cell-based; conditions: 4Ei-10 alone
Description: Sub-confluent MCF-7 cells were treated with either 100 μM 4Ei-10, 50 μM 4EGI-1, or both for 24 hours. After treatment, both floating and attached cells were collected and lysed. Equal amounts of protein were subjected to SDS-PAGE and transferred to a PVDF membrane. p53, PARP, cleaved PARP, and β-actin were detected with their respective antibodies.

[4] = system: cell lines of mantle cell lymphoma (MCL); conditions: cited from earlier work
[5] = system: CHLA-200 cells; test: Western blot of p53, p21Cip1 and PARP cleavage in CHLA-200 cells; format: cell-based
Description: as §1
The ability of 4Ei-10 to induce the p53 tumor suppressor protein in other type of cell lines was also examined. CHLA-200 is a children's glioblastoma multiforme cell line with wild-type p53. CHLA-200 cells were treated with 100 μM 4Ei-10.

[6] = system: SH-SY5Y cells; test: Flow cytometry assay of cell cycle distribution; format: cell-based
Description: Flow Cytometry Assay of Cell Cycle Distribution: Cells were seeded onto six well plates and were grown to sub-confluency. After treatment with or without 4Ei-10, cells were gently removed from the plates, washed once with cold PBS, and fixed with cold 70% ethanol. Cells were then stained with propidium iodide and subjected to flow cytometry (Becton Dickinson FACScalibur). The cell population at each phase was analyzed by the Modfit 2 software.
Since the p53 tumor suppressor protein is known to induce cell cycle arrest through induction of p21Cip1, a cell cycle distribution analysis was performed after treating SH-SY5Y cells with 4Ei-10.

[7] = system: IRES of p53 mRNA; test: Dual luciferase assay of p53 IRES activity (pR5UTRF reporter); format: cell-based; conditions: SH-SY5Y cells transfected with pR5UTRF, compared to untreated control cells
Description: Dual luciferase assays: Cells were lysed with passive lysis buffer (Promega). The dual-luciferase reporter assay (Promega) was then performed according to the manufacturer's instructions. Firefly and Renilla luciferase activities were determined with a Synergy 2 (BioTek) microplate reader.
To determine if the IRES activity of p53 mRNA increases during 4Ei-10 treatment when cap-dependent protein translation is halted by 4Ei-10, a bicistronic dual-luciferase reporter vector pR5UTRF, which contains the IRES sequence (−131 nt before 1st AUG of p53 ORF, accession number, NM_00546.4) of the p53 mRNA, was used to transfect SH-SY5Y cells. The IRES activity of p53 mRNA was then measured as the ratio of firefly (Fluc, controlled by the IRES sequence of p53 mRNA) to Renilla luciferase (Rluc) activity, Rluc is controlled by eIF4E and cap-dependent protein translational machinery and was used as an internal control for Fluc.

[8] = system: SH-SY5Y cells; test: Cell Death ELISA analysis; format: cell-based; conditions: data not shown
[9] = biological target: T1, eIF4E and eIF4G (Homo sapiens, UniProt P06730); test: m7-GTP Sepharose bead pull-down of eIF4E and eIF4G; format: cell-based; conditions: SH-SY5Y cells, 100 μM, 24 hours
T1 construct: endogenous in cells; host or cells: SH-SY5Y
T1 sequence (P06730 2-217 limits assumed): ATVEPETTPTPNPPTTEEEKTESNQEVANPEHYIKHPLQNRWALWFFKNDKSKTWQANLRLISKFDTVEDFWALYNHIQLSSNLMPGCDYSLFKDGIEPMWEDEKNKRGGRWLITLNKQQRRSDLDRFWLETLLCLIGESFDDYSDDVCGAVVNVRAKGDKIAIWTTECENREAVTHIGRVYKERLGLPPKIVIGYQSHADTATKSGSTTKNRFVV
Description: SH-SY5Y cells were treated with 100 μM 4Ei-10 for 24 hours. After treatment, cells were lysed and equal amounts of proteins were incubated with m^7-GTP Sepharose beads. After incubation, beads were washed and mixed with SDS-PAGE loading buffer. The eluted proteins were then subjected to SDS-PAGE and transferred to a PVDF membrane. Bound eIF4G and eIF-4E were then detected with total eIF4E and total β-actin as input controls.

[10] = system: SH-SY5Y cells; test: MTT cell viability assay; format: cell-based; conditions: different concentrations of 4Ei-10
Description: MTT cell viability assay: Cells were plated on a 24-well plate at 20,000 cells/well. After treatment with different reagents, the ratio of viable cells in each well was determined using a CellTiter Cell Proliferation kit (Promega) following the manufacturer's instructions. MTS solution was placed in each well at a ratio of 20 μL/100 μL of cell culture medium and incubated in a cell culture incubator for 2-3 hours. Absorbance was then measured at the wavelength of 492 nm with a microplate reader.
as §2

[11] = system: SH-SY5Y cells; test: Indirect immunofluorescence of phosphorylated H2A.X foci (DNA double strand breaks); format: cell-based; conditions: nucleus
Description: Indirect immunofluorescence: Chamber slides (8 wells, Lab-Tek) were treated with Poly-L-Lysine (Sigma) prior to seeding with SH-SY5Y cells at 8000 cells/well. Sub-confluent cells were treated with different reagents. After treatment, cells were briefly fixed in 3% paraformaldehyde solution and were then permeablized with 0.2% Triton X-100 in Tris-buffered saline. After permeabilization, cells were incubated with a phosphor-Histone H2A.X antibody (Millipore) and then with a Texas-Red conjugated secondary antibody (Jackson Laboratories) followed by DAPI staining. Images were recorded using a Nikon Eclipse TE2000-E confocal microscope at 60× magnification.
Foci formation of phosphorylated H2A.X, which recognizes DNA double strand breaks, was examined.

In the case of O=C(O)C(Cc1ccccc1[N+](=O)[O-])=NNc1nc(-c2ccc(Cl)c(Cl)c2)cs1 (mixture of isomers) [4EGI-1, reference compound], the “induction of the p53 tumor suppressor protein, comparison of single agents and combination” value [1] was “stronger ability” and the “induction of cellular apoptosis, comparison of single agents and combination” value [2] was “stronger ability”.
In the case of CSCCOP(=O)(NCCc1c[nH]c2ccccc12)OC[C@H]1O[C@@H](n2c[n+](CCOc3ccc(Cl)cc3)c3c(=O)[nH]c(N)nc32)C(O)C1O (stereo partly drawn) [4Ei-10], the cell apoptosis [3] is listed as “increased cell apoptosis”, the “induction of the p53 tumor suppressor protein” value [3] is listed as “Induction of the p53 tumor suppressor protein was observed” and the c-Myc expression [4] is listed as “suppression of c-Myc expression”. For the same molecule, the “expression of p27” value [4] was “induce the expression of p27”, the “cell proliferation and cell survival” value ([4]; multiple cell lines of mantle cell lymphoma) was “inhibits cell proliferation and cell survival” and the chemosensitization ([4]; to doxorubicin, dexamethasone, and ibrutinib) was “enhanced chemosensitization”. For the same molecule, the “expression of p53 downstream target p21Cip1” value ([1]; 100 μM, time-course) was “increased expression”, the “p53 tumor suppressor protein accumulation” value ([1]; 100 μM, time-course) was “induced p53 tumor suppressor protein accumulation” and the “p53 tumor suppressor protein accumulation with or without cycloheximide” value ([1]; protein synthesis inhibitor experiment) was “induction of the p53 tumor suppressor protein”. The cell apoptosis ([5]; CHLA200 cells) was “increased cell apoptosis”, the “induction of the p53 tumor suppressor protein” value ([5]; CHLA200 cells) was “Induction of the p53 tumor suppressor protein was observed” and the “PARP cleavage (apoptosis)” value ([5]; CHLA-200 cells, 100 μM) was “induced”. For the same molecule, the “p21Cip1 induction (cell cycle arrest)” value ([5]; CHLA-200 cells, 100 μM) was “induced”, the “cleaved PARP (cellular apoptosis)” value ([2]; 100 μM) was “increase of cleaved PARP” and the “strength of apoptosis induced” value ([2]; 100 μM) was “relatively weak”. For the same molecule, the “treatment time after which apoptosis could be seen” value ([2]; 100 μM, prolonged treatment) was no less than 24 h, the “cell numbers at the G1 phase” value [6] was “substantial increase” and the “cell numbers at the S phase” value [6] was “dramatic decrease”. The “G1S ratio, an indicator of G1 cell cycle arrest” value ([6]; compared to control cells) was “two-fold increase”, the “IRES activity of p53 mRNA (ratio of Fluc/Rluc)” value [7] was “significantly increased” and the “cell death or apoptosis” value [8] was “enhanced cell death or apoptosis”. For the same molecule, the “eIF4E bound to the m7-GTP Sepharose beads” value [9] was “decreased”, the “eIF4G bound to the m7-GTP Sepharose beads” value [9] was “decreased” and the “cell viability or cell proliferation” value [10] was “decrease in cell viability or cell proliferation in a concentration-dependent manner”. The “foci formation of phosphorylated H2A.X (DNA double strand breaks)” value [11] was “not seen”.

From patent publication US11439656B2, “Pharmaceutical compounds and uses thereof” (Regents of the University of Minnesota, priority 2018, dated 2022)
